How the values were obtained:
[1] = test system: Velvetleaf, Abutilon theophrasti; test: Postemergence herbicidal evaluation, ABUTH; format: in vivo, Medic.; conditions: 0.0630 kg/ha
In short: (§1)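 Each compound, dispersed in a 1:1 acetone–water mixture bearing 0.5% TWEEN 20, was sprayed onto roughly two-week-old seedlings at about 0.0157–0.500 kg/ha. Visual 0–9 ratings against control were made 4–5 weeks post-treatment and averaged over repeat tests.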

[2] = test system: Ragweed, Common, Ambrosia artemisifolia; test: Postemergence herbicidal evaluation, AMBEL; format: in vivo, L.; conditions: 0.0630 kg/ha
In short: as §1

[3] = test system: Lambsquarters, Common, Chenopodium album; test: Postemergence herbicidal evaluation, CHEAL; format: in vivo, L.; conditions: 0.0630 kg/ha
In short: as §1

[4] = test system: Galium, Galium aparine; test: Postemergence herbicidal evaluation, GALAP; format: in vivo; conditions: 0.0630 kg/ha
In short: as §1

[5] = test system: Morningglory, Ivyleaf, Ipomoea hederacea; test: Postemergence herbicidal evaluation, IPOHE; format: in vivo, (L.) Jacq.; conditions: 0.0630 kg/ha
In short: as §1

[6] = test system: Barnyardgrass, Echinochloa crus-galli; test: Postemergence herbicidal evaluation, ECHCG; format: in vivo, (L.) Beau; conditions: 0.0630 kg/ha
In short: as §1

[7] = test system: Foxtail, Green, Setaria viridis; test: Postemergence herbicidal evaluation, SETVI; format: in vivo, (L.) Beau; conditions: 0.0630 kg/ha
In short: as §1

[8] = test system: Soybean, Williams, Glycine max; test: Postemergence herbicidal evaluation, GLXMAW; format: in vivo, (L.) Merr. cv Williams; conditions: 0.0630 kg/ha
In short: as §1

[9] = test system: Rice, Tebonnet, Oryza sativa; test: Postemergence herbicidal evaluation, ORYSAT; format: in vivo, (L.) Tebonnet; conditions: 0.0630 kg/ha
In short: as §1

[10] = test system: Wheat, Winter, cv Riband, Triticum aestivum; test: Postemergence herbicidal evaluation, TRZAWR; format: in vivo; conditions: 0.0630 kg/ha
In short: as §1

[11] = test system: Corn, Field, Zea mays; test: Postemergence herbicidal evaluation, ZEAMX; format: in vivo, L.; conditions: 0.0630 kg/ha
In short: as §1

[12] = test system: Velvetleaf, Abutilon theophrasti; test: Preemergence herbicidal evaluation, ABUTH; format: in vivo, Medic.; conditions: 0.2500 kg/ha
From the text: (§2) Results of herbicide evaluation are expressed on a rating scale (0-9). The scale is based upon a visual observation of plant stand, vigor, malformation, size, chlorosis and overall plant appearance as compared with a control.
(§3) The preemergence herbicidal activity of the test compounds of the present invention is exemplified by the following tests in which the seeds of a variety of monocotyledonous and dicotyledonous plants are separately mixed with potting soil and planted on top of approximately one inch of soil in separate pint cups. After planting, the cups are sprayed with the selected aqueous acetone solution containing test compound in sufficient quantity to provide the equivalent of about 0.0156 to 0.500 kg per hectare of test compound per cup. The treated cups are then placed on greenhouse benches, watered and cared for in accordance with conventional greenhouse procedures. From four to five weeks after treatment, the tests are terminated and each cup is examined and rated according to the rating system provided in Example 185.
(§4) The compounds evaluated are reported by compound number given in Example 185.

[13] = test system: Ragweed, Common, Ambrosia artemisifolia; test: Preemergence herbicidal evaluation, AMBEL; format: in vivo, L.; conditions: 0.2500 kg/ha
From the text: as §2, §3, §4

[14] = test system: Sicklepod, Cassia obtusifolia; test: Preemergence herbicidal evaluation, CASOB; format: in vivo, L.; conditions: 0.2500 kg/ha
From the text: as §2, §3, §4

[15] = test system: Lambsquarters, Common, Chenopodium album; test: Preemergence herbicidal evaluation, CHEAL; format: in vivo, L.; conditions: 0.2500 kg/ha
From the text: as §2, §3, §4

[16] = test system: Galium, Galium aparine; test: Preemergence herbicidal evaluation, GALAP; format: in vivo; conditions: 0.2500 kg/ha
From the text: as §2, §3, §4

[17] = test system: Morningglory, Ivyleaf, Ipomoea hederacea; test: Preemergence herbicidal evaluation, IPOHE; format: in vivo, (L.) Jacq.; conditions: 0.2500 kg/ha
From the text: as §2, §3, §4

[18] = test system: Barnyardgrass, Echinochloa crus-galli; test: Preemergence herbicidal evaluation, ECHCG; format: in vivo, (L.) Beau; conditions: 0.2500 kg/ha
From the text: as §2, §3, §4

[19] = test system: Foxtail, Green, Setaria viridis; test: Preemergence herbicidal evaluation, SETVI; format: in vivo, (L.) Beau; conditions: 0.2500 kg/ha
From the text: as §2, §3, §4

[20] = test system: Soybean, Williams, Glycine max; test: Preemergence herbicidal evaluation, GLXMAW; format: in vivo, (L.) Merr. cv Williams; conditions: 0.2500 kg/ha
From the text: as §2, §3, §4

[21] = test system: Rice, Tebonnet, Oryza sativa; test: Preemergence herbicidal evaluation, ORYSAT; format: in vivo, (L.) Tebonnet; conditions: 0.2500 kg/ha
From the text: as §2, §3, §4

[22] = test system: Wheat, Winter, cv Riband, Triticum aestivum; test: Preemergence herbicidal evaluation, TRZAWR; format: in vivo; conditions: 0.2500 kg/ha
From the text: as §2, §3, §4

[23] = test system: Corn, Field, Zea mays; test: Preemergence herbicidal evaluation, ZEAMX; format: in vivo, L.; conditions: 0.2500 kg/ha
From the text: as §2, §3, §4

Measured: herbicide rating (0-9)

COc1ccc(C)cc1-c1nsc2ccc(-n3c(=O)cc(C)n(C)c3=O)cc12 [Compound 24, 3-[3-(6-Methoxy-m-tolyl)-1,2-benzisothiazol-5-yl]-1,6-dimethyl-2,4(1H,3H)-pyrimidinedione]
7.0: [1]
2.0: [23]
5.0: [11] | [13] | [19]
0.5: [9]
1.0: [20]
3.0: [2] | [8] | [10] | [16] | [18]
4.0: [5] | [14]
9.0: [12] | [15] | [17]
0.0: all other assays above

Cc1noc2cc(F)c(-n3c(=O)cc(C(F)(F)F)n(C)c3=O)cc12 [Compound 23, 3-(6-Fluoro-3-methyl-1,2-benzisoxazol-5-yl)-1-methyl-6-(trifluoromethyl)-2,4(1H,3H)-pyrimidinedione]
9.0: [12] | [13] | [14] | [15] | [16] | [17] | [18] | [19] | [20] | [21] | [22] | [23]

Cn1c(C(F)(F)F)cc(=O)n(-c2ccc3onc(-c4ccccc4)c3c2)c1=O [Compound 25, 1-Methyl-3-(3-phenyl-1,2-benzisoxazol-5-yl)-6-(trifluoromethyl)-2,4 (1H,3H)-pyrimidinedione]
2.0: [6]
7.0: [7] | [8] | [21] | [22] | [23]
5.0: [2] | [4]
4.5: [11]
3.5: [9] | [10]
8.0: [5] | [16]
9.0: all other assays above

Source: patent publication US6156700A, “3-(1,2-Benzisothiazol- and isoxazol-5-yl)-2,4(1H,3H)-pyrimidinedione or thione and 3-(1,2-benzisothiazol- and isoxazol-5-yl)-4(3H)-pyrimidinone or thione herbicidal agents” (American Cyanmid Company, priority 1998, dated 2000)
